Test results as given in patent US11298363B2, “Triazolobenzazepines as vasopressin V1a receptor antagonists” (RICHTER GEDEON NYRT., priority 2017, dated 2022).
Marks after values point to notes of the source that are not given here. Each block holds one molecule with its values, some of them ahead of it.

Experiments:
[1] = molecular target: T1, human vasopressin V1a receptor (Homo sapiens, UniProt P37288); assay: Human vasopressin V1a receptor binding assay; details: 1321N1 cell membranes, [3H]vasopressin; read-out: Ki (nM) on hV1a cell line
How it was run: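 Radioligand competition on membranes from cells expressing human V1a receptor; incubation 60 minutes at 27° C., non-specific binding with 1.2×10^−6 M unlabeled (Arg^8)-vasopressin, filtration separation. Ki by Cheng-Prusoff using Scatchard-derived KD, from at least two independent experiments.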

[2] = molecular target: T1, human vasopressin V1a receptor; assay: Functional assay on human vasopressin V1a receptor expressing cell line (intracellular Ca2+ fluorescence); format: cell-based; details: 1321N1 cells, (Arg8)-vasopressin at EC80; read-out: IC50 (nM) on hV1a cell line
[3] = molecular target: human vasopressin V2 receptor (Homo sapiens, UniProt P30518); assay: Human vasopressin V2 receptor binding assay on 1321N1 cell line
Description: Human Vasopressin V2 Receptor Binding Assay Cells and Radioligand
(§1) To determine the final affinity value, the results of at least two independent experiments were taken into account.
(§2) Non-specific binding values were determined in the presence of an unlabeled 1.2×10^−6 M (Arg^8)-vasopressin. Samples were incubated in a total volume of 0.55 ml for 90 minutes at 27° C. Membrane-bound and free ligands were separated by filtration through a 0.5% polyethyleneimine-impregnated UniFilter® GF/B™. After drying the filter plates, 40 μl Microscint-20 (Packard) scintillation cocktail was added to the samples. Finally, radioactivity was measured using MicroBeta^2 Microplate Counter (Perkin Elmer).
(§3) The radioligand displacement ability of a substance is determined in at least two independent experiments. Specific radioligand binding can be defined as the difference between total and non-specific binding in the presence of a saturation amount of the unlabeled ligand or different concentrations of the substance to be tested. The results are given as a percentage of inhibition of the specific binding achieved in the presence of the substance to be tested.
During fitting, the asymptotes are not fixed. The Ki values (inhibition constant) are given with Cheng-Prusoff equation Ki=IC50/[1+(L/KD)] wherein [L] is the radioligand concentration used in the experiment and [KD] is the affinity of the radioactively labelled ligand for the given receptor. The KD is determined beforehand using the Scatchard curve.

[4] = molecular target: mouse vasopressin V1a receptor (Mus musculus, UniProt Q62463); assay: Mouse vasopressin V1a receptor binding assay; details: 1321N1 cell membranes; read-out: Ki (nM) on mV1a cell line
Excerpt: Mouse Vasopressin V1a Receptor Binding Assay Cells and Radioligand
The immortalized 1321N1 cell line (B9/1321N1 clone) constitutively and stably expressing Mouse vasopressin V1a receptor vasopressin (8-L-Arginine), [Phenylalanyl-3,4,5-^3H(N)] labelled compound (Perkin Elmer Life and Analytical Sciences) as radioligand were used to determine the affinity of the prepared compounds.
Membrane-preparation: Membrane preparation of immortalized 1321N1 cells expressing the propagated mouse Vasopressin V1a receptor was made according to Jarvis's method (Jarvis et al., J Pharmacol Exp Ther […], 310:407-16). Cells were suspended in preparative buffer (50 mM Tris, 1 mM EDTA, 0.1 mM PMSF) and homogenized with glass homogenizing potter. To separate the raw membrane fraction two consecutive centrifugation procedures (40,000 g for 25 minutes at 4° C.) were executed, then the membrane was taken into the preparatory buffer during a final washing step, it was divided into aliquots which were stored at −80° C. until the time of measurement.
The protein content of the prepared membrane was determined according to Lowry's method using standard dilution line of bovine serum albumin (BSA) (Lowry et al., J Biol Chem 1951, 193:265-75).
as §1
as §2, with “0.33” for “0.55”, “60” for “90”, “GF/B™” for “GF/B™.”
as §3, with “clamping” for “displacement”
The IC50 data (i.e. the concentration of the unknown substance which displaces 50% of specific bound radioligand) is calculated from the concentration-displacement curve using the sigmoid fitting mathematical method y=(A1−A2)/(1+(x/x0)p)+A2 with Origin 7.5. software (OriginLab Corporation, Northampton, USA). During fitting, the asymptotes are not fixed. The Ki values (inhibition constant) are given with Cheng-Prusoff equation Ki=IC50/[1+(L/KD)] wherein [L] is the radioligand concentration used in the experiment and [KD] is the affinity of the radioactively labelled ligand for the given receptor. The KD is determined beforehand using the Scatchard curve.

mouse V1a receptor = mouse V1a receptor (Mus musculus, UniProt Q62463); assay: Functional V1a in vivo test: inhibition of oxytocin-induced scratching behaviour; details: mice
Description: Functional V1a In Vivo Test
Male mice (NMRI, ToxiCoop) weighing 18-40 g were used. Animals were kept at least 5 days after delivery, during housing and measurements they were fed and drink ad libitum. The experiments were permitted by the Local Animal Protection Committee and carried out in accordance with the European Animal Protection Directives (EU Directive 2010/63/EU).
Animal behaviour was measured by an automated behavioral analysis system (LABORAS™). The sensors located below platforms detect the mechanical vibration generated by the movement of animal, and transform into an electrical signal (Quinn et al., J Neurosci Methods 2003, 130:83-92). After analyzing signals, the system analyzes the time spent with the following behavioral parameters: locomotion, immobility, climbing, grooming. The grooming algorithm by definition is able to measure the scratching behavioral response. During the experiment, mice were pretreated with the test substance or vehicle, and after the pretreatment period scratching-inducing compound (s.c. 0.3 mg/kg oxytocin) was administered, and then the animals were individually placed into measuring cages. […] To reduce the exploratory activity, the animals were measured after a 1-hour habituation to the cage. The behavioural parameters were compared to the parallel measured parameters of the control animals.
The behavioural inhibitory effect of the substances was calculated with average values of parallel measured vehicle treated groups and presented as the percentage of inhibition: 0% was expressed as average value of scratching behaviour of vehicle pretreated animals (and phys. saline s.c. pretreated with vehicle), while 100% was expressed as average value of scratching of vehicle pretreated animals that received oxytocin subcutaneously. For statistical analysis one-way analysis of variance (ANOVA) with Tukey post hoc test were used.

[5] = tested on: Prenatally valproate-treated rats; assay: Prenatal valproate model of ASD, social approach avoidance paradigm; format: in vivo, rat; details: VPA rats; for social approach avoidance active contact time: mean ± S.E.M.; for social approach avoidance % effect: VEH/VEH = 100%, VPA/VEH = 0%
Description: (§4) The Prenatal Valproate Model of Autism Spectrum Disorder (ASD) in Rats
(§5) The prenatal valproate model has excellent construct and face validity, thus it is a widely accepted animal model of ASD (Christensen et al, JAMA 2013, 309:1696-1703; Roullet et al, Neurotoxicol Teratol. 2013, 36:45-56). In this model, time-mated female Wistar rats (Harlan, UK) were treated with single-dose of valproic acid (VPA, i.p. 600 mg/kg) on 12.5 days of pregnancy. After birth and separation, the examined male offsprings were kept under standard laboratory conditions until completion of the studies. Four animals were kept together in standard cages at 22-24° C. external temperature and in 12-12 hour light-dark cycle (07.30 a.m.-07.30 p.m.). Food and water were available ad libitum. After once daily treatment with the test substance for 7 days and pretreatment on the day of measurement, the behaviour of the rats was assessed in the social preference test on the 59th or 60th postnatal day. The social preference test is a largely accepted test method for determining the autistic behaviour of rodents (Nadler et al, Genes Brain Behav 2004, 3:303-314; Bambini-Junior et al, Brain Res 2011, 1408:8-16). The test consists of two paradigms, the first is the social approach avoidance test. In this paradigm the social behaviour of examined animals can be determined with a special three-chamber apparatus. In the apparatus, the contact behaviour of the conspecific and empty separated area surrounded with a perforated wall can be examined and compared. […] One day later, on the 60th postnatal day, rats were tested in the social memory and recognition paradigm. In this, the contact behaviour with a new, previously unknown conspecific can be measured compared to a familiar conspecific.

[6] = tested on: Prenatally valproate-treated rats; assay: Prenatal valproate model of ASD, social memory recognition paradigm; format: in vivo, rat; details: VPA rats; for social memory recognition active novelty contact time: mean ± S.E.M.; for social memory recognition % effect: VEH/VEH = 100%, VPA/VEH = 0%
Description: as §4, §5
Unexpectedly, the treatment reversed the value of VPA/VEH to the value of VEH/VEH treated animals.

V1aR [7] = molecular target: T2, V1aR (Homo sapiens, UniProt P37288); details: cited from earlier work
Target sequence in this assay (P37288 whole entry, species assumed): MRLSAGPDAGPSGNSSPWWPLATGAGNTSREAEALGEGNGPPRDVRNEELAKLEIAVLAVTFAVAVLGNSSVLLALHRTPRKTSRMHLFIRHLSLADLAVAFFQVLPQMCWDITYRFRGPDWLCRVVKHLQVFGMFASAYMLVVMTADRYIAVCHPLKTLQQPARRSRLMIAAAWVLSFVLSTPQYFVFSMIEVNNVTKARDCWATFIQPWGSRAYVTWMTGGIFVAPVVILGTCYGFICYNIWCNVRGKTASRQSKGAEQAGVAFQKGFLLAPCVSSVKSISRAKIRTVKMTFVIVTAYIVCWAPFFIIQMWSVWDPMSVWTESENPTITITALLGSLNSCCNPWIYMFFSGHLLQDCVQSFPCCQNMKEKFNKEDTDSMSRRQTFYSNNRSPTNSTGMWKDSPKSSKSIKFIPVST

V1aR [8] = molecular target: T2, V1aR; details: humans, Phase 1; cited from earlier work
Target sequence in this assay (P37288 whole entry): as the sequence (P37288 whole entry, species assumed) above

[9] = rats; cited from earlier work
human V1a receptor = human V1a receptor (Homo sapiens, UniProt P37288); details: cited from earlier work
[10] = after i.p. treatment (table title: 10 mg/kg)

mouse vasopressin V1a receptor, sequence (Q62463 whole entry): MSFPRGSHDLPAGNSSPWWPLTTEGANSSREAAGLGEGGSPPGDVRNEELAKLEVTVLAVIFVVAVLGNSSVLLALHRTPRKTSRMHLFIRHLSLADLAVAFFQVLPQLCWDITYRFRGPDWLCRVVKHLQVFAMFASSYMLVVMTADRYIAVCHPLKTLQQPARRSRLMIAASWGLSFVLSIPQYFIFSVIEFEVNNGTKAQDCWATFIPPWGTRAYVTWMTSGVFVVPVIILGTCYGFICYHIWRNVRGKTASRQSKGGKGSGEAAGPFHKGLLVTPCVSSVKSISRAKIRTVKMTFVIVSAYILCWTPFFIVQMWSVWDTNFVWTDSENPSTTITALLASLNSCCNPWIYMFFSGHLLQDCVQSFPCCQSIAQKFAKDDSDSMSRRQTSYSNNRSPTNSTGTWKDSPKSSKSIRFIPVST
mouse V1a receptor, sequence (Q62463 whole entry): as above
T1 sequence (P37288 whole entry): as the sequence (P37288 whole entry, species assumed) above
human vasopressin V2 receptor, sequence (P30518 whole entry): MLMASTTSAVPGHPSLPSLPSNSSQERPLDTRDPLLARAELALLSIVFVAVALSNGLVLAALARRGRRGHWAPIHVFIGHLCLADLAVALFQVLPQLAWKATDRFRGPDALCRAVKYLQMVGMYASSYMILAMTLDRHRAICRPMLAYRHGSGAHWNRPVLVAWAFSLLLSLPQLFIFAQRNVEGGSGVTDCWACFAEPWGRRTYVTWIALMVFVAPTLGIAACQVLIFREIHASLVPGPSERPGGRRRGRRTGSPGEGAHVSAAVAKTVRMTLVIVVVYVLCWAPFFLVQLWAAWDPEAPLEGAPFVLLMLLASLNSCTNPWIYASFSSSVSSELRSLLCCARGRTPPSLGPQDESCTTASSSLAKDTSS
human V1a receptor, sequence (P37288 whole entry): as the sequence (P37288 whole entry, species assumed) above

Ki [1]: 0.7 nM
IC50 [2]: 4 nM
inhibition at 1 µM ([3]; read-out: inhibition % at 1 μM on hV2 1321N1 cell line): 35%
SMILES: CNC1Cc2cc(Cl)ccc2-n2c(nnc2[C@H]2CC[C@H](Oc3ccccn3)CC2)C1 (stereo partly drawn) [Example 21, 8-chloro-N-methyl-1-[trans-4-(pyridin-2-yloxy)cyclohexyl]-5,6-dihydro-4H-[1,2,4]triazolo[4,3a][1]benzazepine-5-amine]

Ki [1]: 1 nM
IC50 [2]: 7 nM
Ki [4]: 25 nM
inhibition (%) of oxytocin-induced scratching behaviour response (mouse V1a receptor; [10]): 94* %
SMILES: CC(C)NC1Cc2cc(Cl)ccc2-n2c(nnc2[C@H]2CC[C@H](Oc3ccccn3)CC2)C1 (stereo partly drawn) [Example 24, 8-chloro-N-(propan-2-yl)-1-[trans-4-(pyridin-2-yloxy)cyclohexyl]-5,6-dihydro-4H-[1,2,4]triazolo[4,3-a][1]benzazepine-5-amine]

Ki [1]: 2.3 nM
IC50 [2]: 23 nM
Ki [4]: 353 nM
inhibition (%) of oxytocin-induced scratching behaviour response (mouse V1a receptor; [10]): 42* %
SMILES: CC(C)N[C@H]1Cc2cc(Cl)ccc2-n2c(nnc2[C@H]2CC[C@H](Oc3ccccn3)CC2)C1 [Example 25]

Ki [1]: 0.7 nM
IC50 [2]: 4.5 nM
Ki [4]: 15 nM
SMILES: CC(C)N[C@@H]1Cc2cc(Cl)ccc2-n2c(nnc2[C@H]2CC[C@H](Oc3ccccn3)CC2)C1 [Example 26]
social approach avoidance active contact time ([5]; 1.5 mg/kg i.p.): 71.2 ± 15.9 s
social approach avoidance % effect ([5]; 1.5 mg/kg i.p.): 30%
social approach avoidance active contact time ([5]; 5 mg/kg i.p.): 116.4 ± 22.5 s
social approach avoidance % effect ([5]; 5 mg/kg i.p.): 75%
social approach avoidance active contact time ([5]; 15 mg/kg i.p.): 148.7 ± 8.3 s
social approach avoidance % effect ([5]; 15 mg/kg i.p.): 107%
social memory recognition active novelty contact time ([6]; 1.5 mg/kg i.p.): 83.7 ± 11.8 s
social memory recognition % effect ([6]; 1.5 mg/kg i.p.): 66%
social memory recognition active novelty contact time ([6]; 5 mg/kg i.p.): 133.5 ± 10.0 s
social memory recognition % effect ([6]; 5 mg/kg i.p.): 115%
social memory recognition active novelty contact time ([6]; 15 mg/kg i.p.): 141.9 ± 9.1 s
social memory recognition % effect ([6]; 15 mg/kg i.p.): 124%

Ki [1]: 0.8 nM
IC50 [2]: 2.3 nM
Ki ([3]; 1321N1 cell line, read-out: Ki on hV2 1321N1 cell line): 366 nM
SMILES: FC(F)(F)c1ccc2c(c1)CC1(Cc3nnc([C@H]4CC[C@H](Oc5ccccn5)CC4)n3-2)OCCO1 [Example 47]

Ki [4]: 1.1 nM
inhibition (%) of oxytocin-induced scratching behaviour response (mouse V1a receptor; 10 mg/kg p.o. pretreatment): 118%
SMILES: Clc1ccc2c(c1)CC1(Cc3nnc([C@H]4CC[C@H](Oc5ccccn5)CC4)n3-2)OCCO1 [Example 53, 8′-chloro-1′-[trans-4-(pyridin-2-yloxy)cyclohexyl]-4′H,6′H-spiro[1,3-dioxolane-2,5′-[1,2,4]triazolo[4,3-a][1]benzazepine]]

SMILES: CN1Cc2cc(Cl)ccc2-n2c(nnc2C2CCN(c3ccccn3)CC2)C1 [PF-184563]
V1aR antagonism (V1aR [7]): efficient V1aR antagonists

SMILES: CN(C)CCn1cc(C(=O)N2CCC3(CC2)OCc2ccccc23)c2ccc(Cl)cc21 [RO5028442]
orientation of eye-gaze pattern (V1aR [8]): positive effect

SMILES: O=C(CCCCCCC(=O)Nc1ccccc1)NO [SAHA, suberoil anilide, reference compound]
social approach avoidance active contact time ([5]; 5 mg/kg i.p.): 156.0 ± 6.7 s
social approach avoidance % effect ([5]; 5 mg/kg i.p.): 115%
time spent with social seeking response / social behaviour ([5]; result in words): statistically significant increase
social memory recognition active novelty contact time ([6]; 5 mg/kg i.p.): 155.5 ± 5.8 s
social memory recognition % effect ([6]; 5 mg/kg i.p.): 137%
active time spent with seeking response towards new animal ([6]; result in words): statistically significant increase

SMILES: CN(Cc1cccc(C(F)(F)F)c1)C(=O)[C@@H](CC(=O)N1CCC(N2CCCCC2)CC1)N1C(=O)[C@@H](N2C(=O)OC[C@@H]2c2ccccc2)[C@H]1/C=C/c1ccccc1 [SRX-251]
brain level relative to effective concentrations detected in the binding assay [9]: approximately 100 fold
activity on the human V1a receptor (human V1a receptor): active
